These results are taken from patent US11236129B2, “IL-17A binding peptides and medical uses thereof” (Dompe' Farmaceutici S.P.A., priority 2018, dated 2022).

Each structure is given as a SMILES string. Like-named read-outs stand apart in the source and are kept apart here. Residues, ends and D or L forms follow the SMILES beside them.

In data set [1] the target is IL-17RA/IL17RC dimerization induced by IL-17A (Homo sapiens, UniProt Q16552). The experiment in a line: IL-17RA/IL17RC dimerization assay in response to IL-17A (PathHunter Cytokine Receptor Assay). To be noted: IL-17A at EC80; read-out: IC50 in IL-17RA/IL7RC dimerization assay. Type of data set: cell-based. The method in brief:
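Receptor dimerization was read as chemiluminescence from complemented β-galactosidase after IL-17A at EC80 concentration for 6–16 h at 37 °C. Peptides were added 60 min before agonist, at 37 °C or room temperature, with 1% vehicle. Percent inhibition used the EC80-stimulated and vehicle wells as references.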

The nature of data set [2]: Isoelectric point, log D and log P (SiriusT3). Type of data set: physicochemical. Particulars: for IP (isoelectric point): 25±1° C., 0.15 M KCl; for logD: pH 7.4, pH 7.4, octanol/ISA water, read-out: Log D (7.4); for Log D (7.4): pH 7.4. As to the method: The main physicochemical properties (Isoelectric point (IP), log D (7.4) and log P) of the peptides of Table 8 below were determined by using the SiriusT3 apparatus (Sirius Analytical Instruments Ltd., East Sussex, UK) equipped with an Ag/AgCl double junction reference pH electrode, a Sirius D-PAS spectrometer and a turbidity sensing device. […] An overhead stirrer was used and a temperature probe (Peltier controller) monitored the temperature during the course of the titration. The titration experiments were conducted in 0.15 M KCl Ionic Strength Adjusted solution (ISA water) under a nitrogen atmosphere at a temperature of 25±1° C. All tests were performed using standardized 0.5 M KOH and 0.5 M HCl as titration reagents, for the partition coefficient tests a saturated Octanol in ISA water (5% of ISA water) was used as partition solvent. The pKas were determined by potentiometric method by pH-metric titration. The powder (around 0.5 mg) was dissolved in 1.5 ml of ISA water and the titration was performed in triplicate in the pH range 2.0−12.0.

Data set [3] is classed as physicochemical. Particulars: pH 7.8. As to the method: Each lyophilized peptide was weighed in an amber vial. A calculated volume of phosphate buffered solution at pH 7.8 was added in order to directly obtain 10 mM Stock Solutions. The recovered suspensions were stirred for 30 minutes by orbital shaker incubator at 37° C. Subsequent dilutions were performed to obtain the more diluted stock solutions for the less soluble compounds.
In order to evaluate the stability and the solubility, all the stock solutions were stored at 25° C. The title was evaluated by UHPLC-MS analysis in comparison with the standard solutions, at 3 time points: T0, 3 days, 1 week.
The chromatographic profile was evaluated for the quantitative assay while the MS spectra were detected as support in the stability studies.
Each peptide was weighed and directly diluted at 100 μM with the phosphate buffer at pH 7.8. The solutions were stirred for 5 minutes by vortex and heated at 37° C. for 20 minutes. The obtained standard solution was stored at 25° C. in the dark under controlled temperature.
A portion of the stock solutions was collected in an amber vial and diluted to 100 μM by phosphate buffer at pH 7.8 (dilution factor, 1:100).
Reversed-phase UHPLC was performed operating at a flow rate of 0.3 ml/min with a Luna Omega Polar C18 column ([…] 1.6 μm, 2.1×100 mm). Solvent A was 0.5% Formic Acid in water and solvent B was 0.5% Formic Acid in acetonitrile. First, samples were loaded onto the column and washed isocratically at 10% B for 3 min. Then, a gradient of 10-95% B was run over 22 min, held at 95% for 2 min, and then decreased to 10% over 1 min and held, for the pressure stabilization, for 5 min. UV Absorption was monitored by DAD (220-400 nm). ESI-MS ion trap was used for the monitoring of TIC.

The mark [4] stands for this setting: octanol/ISA water, read-out: logP.

Chain of IL-17RA/IL17RC dimerization induced by IL-17A (Q16552 24-155): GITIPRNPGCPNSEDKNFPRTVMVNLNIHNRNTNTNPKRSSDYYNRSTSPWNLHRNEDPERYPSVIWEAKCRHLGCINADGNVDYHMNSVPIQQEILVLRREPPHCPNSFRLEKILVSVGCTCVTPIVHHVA

As a reminder, the logP is the decadic logarithm of the partition coefficient of the neutral form, usually between octanol and water. By solubility is commonly meant how much of the substance goes into solution per volume. The low end stands for little dissolved substance, the high end for much dissolved substance. For the compound `CC[C@H](C)[C@H](NC(=O)[C@H](Cc1c[nH]c2ccccc12)NC(=O)[C@H](CCC(=O)O)NC(=O)[C@H](Cc1ccc(O)cc1)NC(=O)[C@H](CC(C)C)NC(=O)[C@H](CC(=O)O)NC(=O)[C@H](C)NC(=O)[C@@H]1CCCN1C(=O)[C@@H](NC(=O)[C@@H](NC(=O)[C@@H](NC(=O)[C@H](CCSC)NC(=O)[C@@H](NC(=O)[C@H](Cc1c[nH]c2ccccc12)NC(=O)[C@@H](NC(=O)[C@H](CCC(=O)O)NC(=O)[C@H](Cc1c[nH]c2ccccc12)NC(=O)[C@H](Cc1c[nH]c2ccccc12)NC(=O)[C@@H](NC(=O)[C@H](CCC(=O)O)NC(=O)[C@H](CCCCN)NC(=O)CNC(=O)CNC(C)=O)[C@@H](C)O)[C@@H](C)O)C(C)C)C(C)C)[C@@H](C)O)[C@@H](C)CC)C(=O)N[C@@H](CCC(=O)O)C(=O)N[C@@H](CCC(=O)O)C(N)=O` [SEQ ID NO: 33] (Ac-GGKETWWETWVMVTIPADLYEWIEE-NH2), the IC50 in data set [1] is less than 1 µM. In data set [2], the “IP (isoelectric point)” value is 4.46 and the logD is -1.06. For the same compound, the logP in data set [2] (setting [4]) is 1.99. In data set [3], this compound yielded a solubility of no less than 0.1 mM.
As for `CC[C@H](C)[C@H](NC(C)=O)C(=O)N[C@@H](Cc1c[nH]cn1)C(=O)N[C@H](C(=O)N[C@H](C(=O)N[C@H](C(=O)N1CCC[C@H]1C(=O)N[C@@H](C)C(=O)N[C@@H](CC(=O)O)C(=O)N[C@@H](CC(C)C)C(=O)N[C@@H](Cc1ccc(O)cc1)C(=O)N[C@@H](CCC(=O)O)C(=O)N[C@@H](Cc1c[nH]c2ccccc12)C(=O)N[C@H](C(=O)N[C@@H](CC(N)=O)C(=O)N[C@@H](CCCCN)C(N)=O)[C@@H](C)CC)[C@@H](C)CC)[C@@H](C)O)C(C)C` [SEQ ID NO: 13] (Ac-IHVTIPADLYEWINK-NH2), in data set [2], the logP was −0.49, the “IP (isoelectric point)” value amounted to 6.06 and the “Log D (7.4)” value was found to be 1.15. Moreover, in data set [3], the solubility is reported as greater than 10 mM.
With `CC[C@H](C)[C@H](NC(=O)[C@H](Cc1c[nH]c2ccccc12)NC(=O)[C@H](CCC(=O)O)NC(=O)[C@H](Cc1ccc(O)cc1)NC(=O)[C@H](CC(C)C)NC(=O)[C@H](CC(=O)O)NC(=O)[C@H](C)NC(=O)[C@@H]1CCCN1C(=O)[C@@H](NC(=O)[C@@H](NC(=O)[C@@H](NC(=O)[C@H](CCSC)NC(=O)[C@@H](NC(=O)CNC(=O)[C@H](C)NC(=O)CNC(=O)[C@@H]1CCCN1C(=O)[C@@H](NC(=O)CNC(=O)[C@H](C)NC(=O)CNC(=O)[C@@H]1CCCN1C(=O)[C@@H](NC(C)=O)C(C)C)C(C)C)C(C)C)C(C)C)[C@@H](C)O)[C@@H](C)CC)C(=O)N[C@@H](CCC(=O)O)C(=O)N[C@@H](CCC(=O)O)C(N)=O` [SEQ ID NO: 38], in data set [2], the “IP (isoelectric point)” value is listed as 5.14 and the logD is -3.46. The logP in data set [2] (setting [4]) is -5.88. Moreover, the solubility in data set [3] was greater than 10 mM.
As to `CC[C@H](C)[C@H](NC(C)=O)C(=O)N[C@@H](Cc1c[nH]cn1)C(=O)N[C@H](C(=O)N[C@H](C(=O)N[C@H](C(=O)N1CCC[C@H]1C(=O)N[C@@H](C)C(=O)N[C@@H](CC(=O)O)C(=O)N[C@@H](CC(C)C)C(=O)N[C@@H](Cc1ccc(O)cc1)C(=O)N[C@@H](CCC(=O)O)C(=O)N[C@@H](Cc1c[nH]c2ccccc12)C(=O)N[C@H](C(=O)N[C@@H](CC(N)=O)C(=O)N[C@@H](CCCCN)C(N)=O)[C@@H](C)CC)[C@@H](C)CC)[C@@H](C)O)C(C)C` [SEQ ID NO: 7] (Ac-IHVTIPADLYEWINK-NH2), in data set [2], the logP was −0.86, the “IP (isoelectric point)” value turned out to be 5.19 and the “Log D (7.4)” value is recorded as −1.41. The compound also yielded a solubility in data set [3] greater than 10 mM.
For the compound `CC[C@H](C)[C@H](NC(C)=O)C(=O)N[C@@H](Cc1c[nH]cn1)C(=O)N[C@H](C(=O)N[C@H](C(=O)N[C@H](C(=O)N1CCC[C@H]1C(=O)N[C@@H](C)C(=O)N[C@@H](CC(=O)O)C(=O)NCC(=O)N[C@@H](Cc1c[nH]c2ccccc12)C(=O)N[C@@H](CC(=O)O)C(=O)N[C@@H](Cc1c[nH]c2ccccc12)C(=O)N[C@H](C(=O)N[C@@H](CC(N)=O)C(=O)N[C@@H](CCCCN)C(N)=O)[C@@H](C)CC)[C@@H](C)CC)[C@@H](C)O)C(C)C` [SEQ ID NO: 202] (Ac-IHVTIPADGWDWINK-NH2), the IC50 in data set [1] is less than 10 µM.
`CC[C@H](C)[C@H](NC(C)=O)C(=O)N[C@@H](Cc1c[nH]cn1)C(=O)N[C@H](C(=O)N[C@H](C(=O)N[C@H](C(=O)N1CCC[C@H]1C(=O)N[C@@H](CC(C)C)C(=O)N[C@@H](CCC(=O)O)C(=O)N[C@H](C(=O)N[C@@H](Cc1ccccc1)C(=O)N[C@@H](CCC(=O)O)C(=O)N[C@@H](Cc1c[nH]c2ccccc12)C(=O)N[C@@H](CC(C)C)C(=O)N[C@@H](CCC(N)=O)C(=O)N[C@@H](Cc1c[nH]cn1)C(N)=O)[C@@H](C)CC)[C@@H](C)CC)[C@@H](C)O)C(C)C` [SEQ ID NO: 246] (Ac-IHVTIPLEIFEWLQH-NH2): in data set [1], the IC50 was less than 10 µM.
As to `CC[C@H](C)[C@H](NC(=O)[C@H](Cc1c[nH]c2ccccc12)NC(=O)[C@H](CC(=O)O)NC(=O)[C@H](Cc1c[nH]c2ccccc12)NC(=O)[C@H](CC(C)C)NC(=O)[C@H](CC(=O)O)NC(=O)[C@H](C)NC(=O)[C@@H]1CCCN1C(=O)[C@@H](NC(=O)[C@H](CO)NC(=O)[C@@H](NC(=O)[C@H](CCCCN)NC(=O)[C@@H](NC(C)=O)C(C)C)[C@@H](C)CC)C(C)C)C(=O)N[C@@H](CC(N)=O)C(=O)N[C@@H](CCCCN)C(N)=O` [SEQ ID NO: 239] (Ac-VKISVPADLWDWINK-NH2), the IC50 in data set [1] is less than 10 µM.
On to `CC[C@H](C)[C@H](NC(C)=O)C(=O)N[C@@H](Cc1c[nH]cn1)C(=O)N[C@@H](Cc1ccccc1)C(=O)N[C@H](C(=O)N[C@H](C(=O)N1CCC[C@H]1C(=O)N[C@@H](C)C(=O)N[C@@H](CC(=O)O)C(=O)N[C@@H](CC(C)C)C(=O)N[C@@H](Cc1c[nH]c2ccccc12)C(=O)N[C@@H](CC(=O)O)C(=O)N[C@@H](Cc1c[nH]c2ccccc12)C(=O)N[C@H](C(=O)N[C@@H](CC(N)=O)C(=O)N[C@@H](CCCCN)C(N)=O)[C@@H](C)CC)[C@@H](C)CC)[C@@H](C)O` [SEQ ID NO: 174] (Ac-IHFTIPADLWDWINK-NH2), for which the IC50 in data set [1] was less than 10 µM.
For the compound `CC(=O)N[C@H](C(=O)N[C@@H](Cc1c[nH]cn1)C(=O)N[C@@H](Cc1ccccc1)C(=O)N[C@@H](CCC(N)=O)C(=O)N[C@@H](Cc1ccccc1)C(=O)N1CCC[C@H]1C(=O)N[C@@H](CCC(N)=O)C(=O)N[C@@H](CC(=O)O)C(=O)N[C@@H](CC(C)C)C(=O)N[C@@H](Cc1c[nH]c2ccccc12)C(=O)N[C@@H](CCC(=O)O)C(=O)N[C@@H](Cc1ccccc1)C(=O)N[C@H](C(=O)N[C@@H](CCCNC(=N)N)C(=O)N[C@@H](CCCNC(=N)N)C(N)=O)C(C)C)C(C)C` [SEQ ID NO: 140] (Ac-VHFQFPQDLWEFVRR-NH2), the IC50 in data set [1] is less than 0.5 µM.
On the same count and under the same terms, next, `CC[C@H](C)[C@H](NC(C)=O)C(=O)N[C@@H](Cc1c[nH]cn1)C(=O)N[C@H](C(=O)N[C@@H](CC(N)=O)C(=O)N[C@H](C(=O)N1CCC[C@H]1C(=O)N[C@@H](C)C(=O)N[C@@H](CC(=O)O)C(=O)N[C@@H](CC(C)C)C(=O)N[C@@H](Cc1c[nH]c2ccccc12)C(=O)N[C@@H](CC(=O)O)C(=O)N[C@@H](Cc1c[nH]c2ccccc12)C(=O)N[C@H](C(=O)N[C@@H](CC(N)=O)C(=O)N[C@@H](CCCCN)C(N)=O)[C@@H](C)CC)[C@@H](C)CC)C(C)C` [SEQ ID NO: 177] (Ac-IHVNIPADLWDWINK-NH2): less than 10 µM.
Regarding `CC[C@H](C)[C@H](NC(C)=O)C(=O)N[C@@H](Cc1c[nH]cn1)C(=O)N[C@H](C(=O)N[C@H](C(=O)N[C@H](C(=O)N1CCC[C@H]1C(=O)N[C@@H](C)C(=O)N[C@@H](CC(=O)O)C(=O)N[C@H](C(=O)N[C@@H](Cc1c[nH]c2ccccc12)C(=O)N[C@@H](CC(=O)O)C(=O)N[C@@H](Cc1c[nH]c2ccccc12)C(=O)N[C@H](C(=O)N[C@@H](CC(N)=O)C(=O)N[C@@H](CCCCN)C(N)=O)[C@@H](C)CC)C(C)C)[C@@H](C)CC)[C@@H](C)O)C(C)C` [SEQ ID NO: 204] (Ac-IHVTIPADVWDWINK-NH2), the IC50 in data set [1] was less than 10 µM.
